Source: patent publication US8541611B2 (dated 2013)

CC(C)N(C)S(=O)(=O)NC(=O)c1cc(N=C=O)c(F)cc1Cl
melting point: 144 to 148 °C
